Experimental findings from patent US11072628B2, “Nucleoside analogues for the treatment of parasitic infections” (UNIVERSITEIT GENT, priority 2017, dated 2021) are described below.

Data set [1] relates to T. cruzi Tulahuen CL2 β galactosidase strain. In words: T. cruzi Tulahuen CL2 β galactosidase strain on MRC-5SV2 cells (CPRG). Type of data set: cell-based, Trypanosoma cruzi. On the procedure: All cultures and assays were conducted at 37° C./5% CO2. […] The results were expressed as % reduction in parasite burdens compared to control wells from which an EC50 was calculated.

In another data set the test system is MRC-5 fibroblasts. In words: in vitro. As to the method:
(§1) Cytotoxicity was assayed against MRC-5 fibroblasts. Results are depicted in Tables 4 and 5.

Data set [2] deals with T. b. rhodesiense STIB-900. In words: In vitro drug susceptibility, T. b. rhodesiense STIB-900 (resazurin). The format is cell-based, Trypanosoma brucei rhodesiense. As to the method: (§2) All trypanosome strains were cultured in the standard HMI-9 medium supplemented with 10% fetal bovine serum (FBS) at 37° C. in a 5% CO2 atmosphere.
The subject of another data set is T. brucei Squib 427. In words: In vitro drug susceptibility, T. brucei Squib 427 (resazurin). The format is cell-based, Trypanosoma brucei brucei. On the procedure: as §2
Data set [3] can be described thus: Cytotoxicity against MRC-5 fibroblasts. The note with it: human, MRC-5 fibroblasts, cytotoxicity. On the procedure: as §1
Where [4] appears, read: Table 2, average of 2-3 independent replicates.
Setting [5] is: Table 1, average of 2-4 independent determinations, read-out: T. brucei rhod. EC50.
[6] abbreviates: Table 1, average of 2-4 independent determinations, read-out: T. brucei brucei EC50.
The mark [7] stands for this setting: Table 5, average of 2-4 independent replicates.
[8] abbreviates: Table 4, average of 2-6 independent determinations, read-out: T.b. brucei EC50.

Where two headings read alike, the source gives them in different places. Where only a bound is given, the exact number is not on record here.

Broadly, the EC50 is the concentration that produces a half-maximal response. Regarding `CO[C@@H]1C[C@@H](CO)O[C@H]1n1cc(Br)c2c(N)ncnc21` [FH9616, 4-amino-5-bromo-N7-(2′-O-methyl-3′-deoxy-β-D-ribofuranosyl)-pyrrolo[2,3-d]pyrimidine], the EC50 is greater than 64 µM in data set [1] (setting [4]), greater than 64 µM in the data set with MRC-5 fibroblasts, 25.4 µM in data set [2] (setting [5]) and 32.5 µM in the data set with T. brucei Squib 427 (setting [6]).
With “4-amino-5-bromo-N7-(2′,3′-anhydro-2′,3′-dideoxy-β-D-ribofuranosyl)-pyrrolo[2,3-d]pyrimidine [FH10632]”, the EC50 in data set [1] (setting [4]) was greater than 64 µM; with MRC-5 fibroblasts, 45.6 µM; in data set [2] (setting [5]), 59.9 µM; in the data set with T. brucei Squib 427 (setting [6]), greater than 64 µM.
Turning to `Nc1ncnc2c1c(-c1cccc(C(F)(F)F)c1)cn2[C@@H]1O[C@H](CO)C[C@H]1O` [FH10640, 4-amino-5-(3-trifluoromethylphenyl)-N7-(3′-deoxy-β-D-ribofuranosyl)-pyrrolo[2,3-d]pyrimidine], the EC50 in data set [1] (setting [4]) amounted to 11.2 µM; in the data set on MRC-5 fibroblasts it was 49.6 µM; in data set [2] (setting [5]), 1.77 µM; with T. brucei Squib 427 (setting [6]), 8.6 µM.
Regarding `CSC[C@@H]1C[C@@H](O)[C@H](n2cc(Br)c3c(N)ncnc32)O1` [FH9527, 4-amino-5-bromo-N7-(3′-deoxy-5′-thiomethyl-β-D-ribofuranosyl)-pyrrolo[2,3-d]pyrimidine], the EC50 amounted to 25 µM in data set [1] (setting [4]), 15.3 µM in the data set on MRC-5 fibroblasts, 22.3 µM in data set [2] (setting [5]) and 32.5 µM in the data set with T. brucei Squib 427 (setting [6]).
As to `Nc1ncnc2c1c(-c1ccc3ccccc3n1)cn2[C@@H]1O[C@H](CO)[C@@H](O)[C@H]1O` [MS1017], the EC50 is 34.1 µM in data set [1] (setting [7]); greater than 64 µM in the data set on MRC-5 fibroblasts; 3.72 µM in data set [2] (Table 4, average of 2-6 independent determinations, read-out: T.b. rhod. EC50); 6.45 µM with T. brucei Squib 427 (setting [8]).
For the molecule `COc1ccc(-c2cn([C@@H]3O[C@H](CO)C[C@H]3O)c3ncnc(N)c23)cc1Cl` [FH10645], the EC50 is 3.3 µM in data set [1] (setting [4]), greater than 64 µM with MRC-5 fibroblasts, 2.51 µM in data set [2] (setting [5]) and 7.13 µM with T. brucei Squib 427 (setting [6]).
On to `Nc1ccnc2c1ccn2[C@@H]1O[C@H](CO)C[C@H]1O` [FH9550, 4-amino-N1-(3′-deoxy-β-D-ribofuranosyl)-pyrrolo[2,3-b]pyridine], for which the EC50 in data set [1] was greater than 64 µM; in the data set with MRC-5 fibroblasts, greater than 64 µM; in data set [2] (setting [5]), 30.8 µM; in the data set on T. brucei Squib 427 (setting [6]), greater than 64 µM.
Turning to `Nc1ncnc2c1cc(Br)n2[C@@H]1O[C@H](CO)C[C@H]1O` [FH10622, 4-amino-6-bromo-N7-(3′-deoxy-β-D-ribfuranosyl)-pyrrolo[2,3-d]pyrimidine], the EC50 in data set [1] (setting [4]) was greater than 64 µM; with MRC-5 fibroblasts, greater than 64 µM; in data set [2] (setting [5]) it was 1.02 µM; in the data set on T. brucei Squib 427 (setting [6]), 4.97 µM.
`Nc1ccnc2c1c(Br)cn2[C@@H]1O[C@H](CO)C[C@H]1O` [FH9549, 3-bromo-4-amino-N1-(3′-deoxy-β-D-ribofuranosyl)-pyrrolo[2,3-b]pyridine]: the EC50 in data set [1] was greater than 64 µM; with MRC-5 fibroblasts, greater than 64 µM; in data set [2] (setting [5]), greater than 64 µM; in the data set with T. brucei Squib 427 (setting [6]) it was 35.2 µM.
For the molecule `Nc1ncnc2c1c(-c1ccccc1)cn2[C@@H]1O[C@H](CO)C[C@H]1O` [FH8480, 4-amino-5-phenyl-N7-(3′-deoxy-β-D-ribofuranosyl)-pyrrolo[2,3-d]pyrimidine], the EC50 in data set [1] (setting [4]) stood at 2.57 µM; in the data set with MRC-5 fibroblasts, 61.8 µM; in data set [2] (setting [5]), 1.2 µM; with T. brucei Squib 427 (setting [6]) it was 7.9 µM.
For `CC(C)c1ccc(-c2cn([C@@H]3O[C@H](CO)C[C@H]3O)c3ncnc(N)c23)cc1` [FH9574, 4-amino-5-(4-isopropylphenyl)-N7-(3′-deoxy-β-D-ribofuranosyl)-pyrrolo[2,3-d]pyrimidine], in that order: 8.5 µM, 24.9 µM, 55.9 µM and greater than 64 µM.
As for `Nc1ncnc2c1c(Br)cn2[C@@H]1OC(CO)(CO)C[C@H]1O` [FH9561, 4-amino-5-bromo-N7-(3′-deoxy-4′-hydroxymethyl-β-D-ribofuranosyl)-pyrrolo[2,3-d]pyrimidine], the EC50 is greater than 64 µM in data set [1] (setting [4]), greater than 64 µM with MRC-5 fibroblasts, 5.6 µM in data set [2] (setting [5]) and 26.8 µM with T. brucei Squib 427 (setting [6]).
Regarding `CCSC[C@@H]1C[C@@H](O)[C@H](n2cc(Br)c3c(N)ncnc32)O1` [FH9590, 4-amino-5-bromo-N7-(3′-deoxy-5′-thio-ethyl-β-D-ribofuranosyl)-pyrrolo[2,3-d]pyrimidine], the EC50 in data set [1] (setting [4]) was 35.7 µM; in the data set on MRC-5 fibroblasts, 25.8 µM; in data set [2] (setting [5]), 10.6 µM; in the data set on T. brucei Squib 427 (setting [6]), 32.9 µM.
As to `Cc1ccc(-c2cn([C@@H]3O[C@H](CO)C[C@H]3O)c3ncnc(N)c23)cc1C` [FH10653, 4-amino-5-(3,4-dimethylphenyl)-N7-(3′-deoxy-β-D-ribofuranosyl)-pyrrolo[2,3-d]pyrimidine], the EC50 turned out to be 1.37 µM in data set [1] (setting [4]), 22.3 µM in the data set with MRC-5 fibroblasts, 2.17 µM in data set [2] (setting [5]) and 8.81 µM in the data set on T. brucei Squib 427 (setting [6]).
For `CSc1ncnc2c1c(Br)cn2[C@@H]1O[C@H](CO)C[C@H]1O` [FH8510, 4-thiomethyl-5-bromo-N7-(3′-deoxy-β-D-ribofuranosyl)-pyrrolo[2,3-d]pyrimidine], in that order: 35.8 µM, 0.29 µM, 4.34 µM and 1.68 µM.
Turning to `Nc1ncnc2c1c(Br)cn2[C@H]1CC[C@@H](CO)O1` [FH10638, 4-amino-5-bromo-N7-(2′,3′-dideoxy-β-D-ribofuranosyl)-pyrrolo[2,3-d]pyrimidine], the EC50 in data set [1] (setting [4]) amounted to 43.3 µM; with MRC-5 fibroblasts, 16.4 µM; in data set [2] (setting [5]), 24.4 µM; in the data set on T. brucei Squib 427 (setting [6]), 57.9 µM.
For `Nc1ncnc2c1c(-c1ccc3ccccc3c1)cn2[C@@H]1O[C@H](CO)C[C@H]1O` [FH9575, 4-amino-5-(2-naftyl)-N7-(3′-deoxy-β-D-ribfuranosyl)-pyrrolo[2,3-d]pyrimidine], in that order: 0.72 µM, 5 µM, 2 µM and 18.6 µM.
Turning to `Cc1cccc(-c2cn([C@@H]3O[C@H](CO)C[C@H]3O)c3ncnc(N)c23)c1` [FH10639, 4-amino-5-(3-methylphenyl)-N7-(3′-deoxy-β-D-ribofuranosyl)-pyrrolo[2,3-d]pyrimidine], the EC50 in data set [1] (setting [4]) is 5.15 µM; with MRC-5 fibroblasts it was greater than 64 µM; in data set [2] (setting [5]), 11.2 µM; in the data set with T. brucei Squib 427 (setting [6]), 30.5 µM.
Consider `OC[C@@H]1C[C@@H](O)[C@H](n2ccc3c(Cl)ccnc32)O1` [FH9541, 4-chloro-N1-(3′-deoxy-β-D-ribofuranosyl)-pyrrolo[2,3-b]pyridine], for which the EC50 was greater than 64 µM in data set [1], greater than 64 µM in the data set on MRC-5 fibroblasts, 7.97 µM in data set [2] (setting [5]) and 31.2 µM in the data set on T. brucei Squib 427 (setting [6]).
In the case of `Nc1ncnc2c1c(-c1ccccn1)cn2[C@@H]1O[C@H](CO)C[C@H]1O` [FH8502, 4-amino-5-(pyrid-2-yl)-N7-(3′-deoxy-β-D-ribfuranosyl)-pyrrolo[2,3-d]pyrimidine], the EC50 in data set [1] (setting [4]) was 40.8 µM; with MRC-5 fibroblasts it was 33.7 µM; in data set [2] (setting [5]) it was 37.3 µM; in the data set with T. brucei Squib 427 (setting [6]), 7.6 µM.
`Nc1ncnc2c1c(-c1cnccn1)cn2[C@@H]1O[C@H](CO)[C@@H](O)[C@H]1O` [FH3179, 4-amino-5-(pyrazine-2-yl)-N7-(β-D-ribofuranosyl)-pyrrolo[2,3-d]pyrimidine]: the EC50 amounted to 0.86 µM in data set [1] (Trypanosoma cruzi, TULAHUEN, MRC-5 SV2, Table 5, average of 2-4 independent replicates); 0.55 µM in data set [3] (MRC-5 EC50, Table 4); 0.55 µM in data set [3] (MRC-5 EC50, Table 5); 1.95 µM in the data set on T. brucei Squib 427 (Trypanosoma brucei, read-out: T.b. brucei EC50, Table 4, average of 2-6 independent determinations). In addition, in the data set with MRC-5 fibroblasts, the “cytotoxicity, in words” value was “submicromolar cytotoxicity”.
For `Cn1cnc(-c2cn([C@@H]3O[C@H](CO)[C@@H](O)[C@H]3O)c3ncnc(N)c23)c1` [FH3182], the values for the EC50 (in data set [1] (setting [7]); in the data set with MRC-5 fibroblasts; in the data set on T. brucei Squib 427 (setting [8])) were 8.34 µM, 23.4 µM and 4.76 µM, respectively. The “anti-trypanosomal activity against T. brucei, in words” value in the data set with T. brucei Squib 427 is “low μM activity”.
`COC[C@@H]1C[C@@H](O)[C@H](n2cc(Br)c3c(N)ncnc32)O1` [FH10626, 4-amino-5-bromo-N7-(3′-deoxy-5′-O-methyl-β-D-ribofuranosyl)-pyrrolo[2,3-d]pyrimidine]: the EC50 turned out to be 50.4 µM in data set [1] (setting [4]), 22.7 µM in the data set on MRC-5 fibroblasts, 18.7 µM in data set [2] (setting [5]) and 32 µM in the data set with T. brucei Squib 427 (setting [6]).
For `COc1ncnc2c1c(Br)cn2[C@@H]1O[C@H](CO)C[C@H]1O` [FH8497, 4-methoxy-5-bromo-N7-(3′-deoxy-β-D-ribofuranosyl)-pyrrolo[2,3-d]pyrimidine], in that order: greater than 64 µM, 2.7 µM, 3.7 µM and 2.62 µM.
For `Nc1ncnc2c1c(SC(F)(F)F)cn2[C@@H]1O[C@H](CO)C[C@H]1O` [FH9605, 4-amino-5-trifluoromethylthio-N7-(3′-deoxy-β-D-ribofuranosyl)-pyrrolo[2,3-d]pyrimidine], in that order: 26 µM, 18.6 µM, 21 µM and 27.2 µM.
For `CNc1ncnc2c1c(Br)cn2[C@@H]1O[C@H](CO)C[C@H]1O` [FH8516, 4-methylamino-5-bromo-N7-(3′-deoxy-β-D-ribofuranosyl)-pyrrolo[2,3-d]pyrimidine], in that order: greater than 64 µM, greater than 64 µM, 8.25 µM and 6.21 µM.
